Drawing on patent publication US9359367B2, “Tetrahydroquinazolinone derivatives as PARP inhibitors” (Lupin Limited, priority 2012, dated 2016), this text covers IC50 for 26 molecules.

The experiment addresses T1, PARP1 (Homo sapiens, UniProt P09874).
T1 construct: purchased BPS Bioscience
Briefly: PARP1 Biochemical Assay (BPS Bioscience kit, chemiluminescence). As to conditions: histone-coated plate, biotinilated NAD+, 25° C. for 60 min, luminescence, read-out: PARP 1 inhibition IC50. Here is the method: The assay was performed using BPS Bioscience kit. The 96-well strip plate was coated with 50 μl of histone mixture and incubated at 4° C. overnight. Next day the wells were blocked by adding 100 μl of blocking buffer. The plate was washed and 25 μl of appropriate concentration of PARP1 (25-75 ng/well) was added in all the Test and Positive control wells. In Negative control wells enzyme was replaced with 25 μl of water. To it 5 μl each of 10×PARP assay buffer and activated DNA was added in all the wells (Test, Positive and Negative control wells). 10× concentration of test compounds were prepared and 5 μl test compounds were added respective wells. Reaction volume was made up to 45 μl by adding water to all the wells. Finally, 5 μl of 10×PARP assay mixture containing biotinilated NAD^+ was added in each well and the plate was incubated at ambient temperature (25° C.) for 60 min. After washing the plate 50 μl of Streptavidin-HRP was added in each well and incubated the plate at RT for 30 min. The plate was washed and the luminescence was read in PHERAStar plate reader after adding 100 μl of chemiluminescent substrate.
PARP inhibition was calculated using the following formula: % PARP inhibition=100−[(RLU test compound treated sample−RLU negative control)/(RLU Positive control−RLU negative control)×100]
IC50 values were calculated by plotting % inhibition against the respective concentrations of test compounds using GraphPad Prism 5.

T1 sequence (P09874 whole entry): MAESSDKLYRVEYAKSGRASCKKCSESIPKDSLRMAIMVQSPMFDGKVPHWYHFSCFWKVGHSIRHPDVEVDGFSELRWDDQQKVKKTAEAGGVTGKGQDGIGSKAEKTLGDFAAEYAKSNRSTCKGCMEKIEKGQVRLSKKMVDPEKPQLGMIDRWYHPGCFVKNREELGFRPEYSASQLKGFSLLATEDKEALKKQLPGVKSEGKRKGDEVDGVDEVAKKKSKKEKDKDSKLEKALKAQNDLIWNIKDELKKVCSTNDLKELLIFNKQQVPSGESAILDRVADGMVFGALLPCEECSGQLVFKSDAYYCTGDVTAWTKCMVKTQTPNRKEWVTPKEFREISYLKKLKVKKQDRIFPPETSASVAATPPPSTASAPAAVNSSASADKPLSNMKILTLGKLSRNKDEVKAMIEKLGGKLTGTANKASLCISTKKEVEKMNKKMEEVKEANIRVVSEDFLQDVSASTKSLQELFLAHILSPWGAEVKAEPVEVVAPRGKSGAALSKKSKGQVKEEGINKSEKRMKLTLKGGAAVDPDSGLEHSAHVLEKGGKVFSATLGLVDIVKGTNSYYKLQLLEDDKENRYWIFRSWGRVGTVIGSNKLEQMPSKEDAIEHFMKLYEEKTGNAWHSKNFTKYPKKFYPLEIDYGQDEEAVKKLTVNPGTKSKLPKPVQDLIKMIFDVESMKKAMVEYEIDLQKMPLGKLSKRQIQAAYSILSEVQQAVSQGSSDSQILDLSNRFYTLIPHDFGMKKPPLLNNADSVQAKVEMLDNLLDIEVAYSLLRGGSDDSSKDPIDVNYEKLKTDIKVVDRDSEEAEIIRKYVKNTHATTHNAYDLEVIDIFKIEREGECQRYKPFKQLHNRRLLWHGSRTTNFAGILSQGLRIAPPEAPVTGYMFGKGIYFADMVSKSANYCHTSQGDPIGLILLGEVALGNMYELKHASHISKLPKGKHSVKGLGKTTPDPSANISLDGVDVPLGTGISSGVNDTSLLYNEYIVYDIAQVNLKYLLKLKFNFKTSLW

In the case of `Cc1ccc(N2CCN([C@H]3C=C(c4nc5c(c(=O)[nH]4)CC4(CC5)CC4)CC3)CC2)cc1` [Compound 73, (R)-2′-(3-(4-(p-tolyl)piperazin-1-yl)cyclopent-1-en-1-yl)-7′,8′-dihydro-3′H-spiro[cyclopropane-1,6′-quinazolin]-4′(5′H)-one], the IC50 – broadly, the concentration that inhibits the measured activity by half – fell in the range of 1 to 500 nM.

`O=c1[nH]c(CCCN2CC=C(c3ccccc3)CC2)nc2c1CCCC21CC1` [Compound 3, 2′-(3-(4-phenyl-5,6-dihydropyridin-1(2H)-yl)propyl)-6′,7′-dihydro-3′H-spiro[cyclopropane-1,8′-quinazolin]-4′(5′H)-one]: the IC50 is 1 to 500 nM.

As for `CC1CN(c2ccc(F)cc2)CCN1CCCc1nc2c(c(=O)[nH]1)CC1(CC2)CC1` (centres unmarked) [Compound 27, 2′-(3-(4-(4-fluorophenyl)-2-methylpiperazin-1-yl)propyl)-7′,8′-dihydro-3′H-spiro[cyclopropane-1,6′-quinazolin]-4′(5′H)-one], the IC50 lay in the range of 1 to 500 nM.

For `O=c1[nH]c(C2=C[C@H](N3CCN(c4ccc(Cl)cc4F)CC3)CC2)nc2c1CC1(CC2)CC1` [Compound 63, (R)-2′-(3-(4-(4-chloro-2-fluorophenyl)piperazin-1-yl)cyclopent-1-en-1-yl)-7′,8′-dihydro-3′H-spiro[cyclopropane-1,6′-quinazolin]-4′(5′H)-one], the IC50 fell in the range of 1 to 500 nM.

For the molecule `CC1(C)CC(c2nc3c(c(=O)[nH]2)CC2(CC3)CC2)=C[C@H]1N1CCN(c2ccc(F)cc2)CC1` [Compound 70, (R)-2′-(3-(4-(4-fluorophenyl)piperazin-1-yl)-4,4-dimethylcyclopent-1-en-1-yl)-7′,8′-dihydro-3′H-spiro[cyclopropane-1,6′-quinazolin]-4′(5′H)-one], the IC50 was 5000 to 500000 nM.

For `O=c1[nH]c([C@@H]2CC[C@@H](N3CCN(c4ccc(Cl)cc4)CC3)C2)nc2c1CC1(CC2)CC1` [Compound 121, 2′-((1R,3R)-3-(4-(4-chlorophenyl)piperazin-1-yl)cyclopentyl)-7′,8′-dihydro-3′H-spiro[cyclopropane-1,6′-quinazolin]-4′(5′H)-one], the IC50 was 5000 to 500000 nM.

For `O=c1[nH]c(C2=C[C@H](N3CCN(c4ccc(-c5ccsc5)cc4)CC3)CC2)nc2c1CC1(CC2)CC1` [Compound 148, (R)-2′-(3-(4-(4-(thiophen-3-yl)phenyl)piperazin-1-yl)cyclopent-1-en-1-yl)-7′,8′-dihydro-3′H-spiro[cyclopropane-1,6′-quinazolin]-4′(5′H)-one], the IC50 was in the range of 501 to 5000 nM.

Consider `O=c1[nH]c(C2=C[C@@H](N3CC=C(c4ccc(Cl)cc4)CC3)CC2)nc2c1CC1(CC2)CC1` [Compound 47, (S)-2′-(3-(4-(4-chlorophenyl)-5,6-dihydropyridin-1(2H)-yl)cyclopent-1-en-1-yl)-7′,8′-dihydro-3′H-spiro[cyclopropane-1,6′-quinazolin]-4′(5′H)-one], for which the IC50 is 1 to 500 nM.

Take `O=c1[nH]c(C2=C[C@H](N3CCN(c4ccccc4Cl)CC3)CC2)nc2c1CC1(CC2)CC1` [Compound 122, (R)-2′-(3-(4-(2-chlorophenyl)piperazin-1-yl)cyclopent-1-en-1-yl)-7′,8′-dihydro-3′H-spiro[cyclopropane-1,6′-quinazolin]-4′(5′H)-one]: the IC50 was in the range of 1 to 500 nM.

Take `Cc1ncccc1N1CCN([C@H]2C=C(c3nc4c(c(=O)[nH]3)CC3(CC4)CC3)CC2)CC1` [Compound 129, (R)-2′-(3-(4-(2-methylpyridin-3-yl)piperazin-1-yl)cyclopent-1-en-1-yl)-7′,8′-dihydro-3′H-spiro[cyclopropane-1,6′-quinazolin]-4′(5′H)-one]: the IC50 lay within 1 to 500 nM.

Take `CNC(=O)c1ccc(N2CCN([C@H]3C=C(c4nc5c(c(=O)[nH]4)CC4(CC5)CC4)CC3)CC2)c(C)c1` [Compound 97, (R)—N, 3-dimethyl-4-(4-(3-(4′-oxo-4′,5′,7′,8′-tetrahydro-3′H-spiro[cyclopropane-1,6′-quinazolin]-2′-yl)cyclopent-2-en-1-yl)piperazin-1-yl)benzamide]: the IC50 was 1 to 500 nM.

For the molecule `O=c1[nH]c(CCCN2CCN(c3ccc(Cl)cc3)CC2)nc2c1C1CCC2C1` (centres unmarked) [Compound 36, 2-(3-(4-(4-chlorophenyl)piperazin-1-yl)propyl)-5,6,7,8-tetrahydro-5,8-methanoquinazolin-4(3H)-one], the IC50 was in the range of 5000 to 500000 nM.

In the case of `O=c1[nH]c(CCCN2CCN(c3ccccc3Cl)CC2)nc2c1CC1(CC2)CC1` [Compound 14, 2′-(3-(4-(2-chlorophenyl)piperazin-1-yl)propyl)-7′,8′-dihydro-3′H-spiro[cyclopropane-1,6′-quinazolin]-4′(5′H)-one], the IC50 is 1 to 500 nM.

Take `Cc1cccc(N2CCN(CCCc3nc4c(c(=O)[nH]3)CC3(CC4)CC3)CC2)c1` [Compound 23, 2′-(3-(4-(m-tolyl)piperazin-1-yl)propyl)-7′,8′-dihydro-3′H-spiro[cyclopropane-1,6′-quinazolin]-4′(5′H)-one]: the IC50 fell in the range of 5000 to 500000 nM.

As for `O=c1[nH]c(C2=C[C@H](N3CCN(c4ncccn4)CC3)CC2)nc2c1CC1(CC2)CC1` [Compound 128, (R)-2′-(3-(4-(pyrimidin-2-yl)piperazin-1-yl)cyclopent-1-en-1-yl)-7′,8′-dihydro-3′H-spiro[cyclopropane-1,6′-quinazolin]-4′(5′H)-one], the IC50 is 5000 to 500000 nM.

`CCc1cnc(N2CCN([C@H]3C=C(c4nc5c(c(=O)[nH]4)CC4(CC5)CC4)CC3)CC2)nc1` [Compound 135, (R)-2′-(3-(4-(5-ethylpyrimidin-2-yl)piperazin-1-yl)cyclopent-1-en-1-yl)-7′,8′-dihydro-3′H-spiro[cyclopropane-1,6′-quinazolin]-4′(5′H)-one]: the IC50 fell in the range of 5000 to 500000 nM.

Regarding `O=c1[nH]c(CCCN2CCN(c3ccc(F)cc3)CC2)nc2c1CC1(CC2)CC1` [Compound 5, 2′-(3-(4-(4-fluorophenyl)piperazin-1-yl)propyl)-7′,8′-dihydro-3′H-spiro[cyclopropane-1,6′-quinazolin]-4′(5′H)-one], the IC50 lay in the range of 1 to 500 nM.

Regarding `O=C(NC1CC1)c1ccc(N2CCN(C3C=C(c4nc5c(c(=O)[nH]4)CC4(CC5)CC4)CC3)CC2)cc1` (centres unmarked) [Compound 44, N-cyclopropyl-4-(4-(3-(4′-oxo-4′,5′,7′,8′-tetrahydro-3′H-spiro[cyclopropane-1,6′-quinazolin]-2′-yl)cyclopent-2-en-1-yl)piperazin-1-yl)benzamide], the IC50 was 1 to 500 nM.

With `O=c1[nH]c(CCCN2CC=C(c3ccc(F)cc3)CC2)nc2c1CCC1(CC1)C2` [Compound 16, 2′-(3-(4-(4-fluorophenyl)-5,6-dihydropyridin-1(2H)-yl)propyl)-5′,6′-dihydro-3′H-spiro[cyclopropane-1,7′-quinazolin]-4′(8′H)-one], the IC50 fell in the range of 5000 to 500000 nM.

On to `O=c1[nH]c(CCCN2C3CCC2CN(c2ccc(F)cc2)C3)nc2c1CC1(CC2)CC1` [Compound 7, 2′-(3-(3-(4-fluorophenyl)-3,8-diazabicyclo[3.2.1]octan-8-yl)propyl)-7′,8′-dihydro-3′H-spiro[cyclopropane-1,6′-quinazolin]-4′(5′H)-one], for which the IC50 is 1 to 500 nM.

In the case of `N#Cc1ccc(N2CCN([C@H]3C=C(c4nc5c(c(=O)[nH]4)CC4(CC5)CC4)CC3)CC2)c(F)c1` [Compound 111, (R)-3-fluoro-4-(4-(3-(4′-oxo-4′,5′,7′,8′-tetrahydro-3′H-spiro[cyclopropane-1,6′-quinazolin]-2′-yl)cyclopent-2-en-1-yl)piperazin-1-yl)benzonitrile], the IC50 lay in the range of 1 to 500 nM.

In the case of `Cc1ccc(N2CCN([C@H]3C=C(c4nc5c(c(=O)[nH]4)CC4(CC5)CC4)CC3)CC2)cc1Cl` [Compound 82, (R)-2′-(3-(4-(3-chloro-4-methylphenyl)piperazin-1-yl)cyclopent-1-en-1-yl)-7′,8′-dihydro-3′H-spiro[cyclopropane-1,6′-quinazolin]-4′(5′H)-one], the IC50 lay in the range of 1 to 500 nM.

For `O=c1[nH]c([C@@H]2CC[C@H](N3CCN(c4ccc(F)cc4)CC3)C2)nc2c1CC1(CC2)CC1` [Compound 150, 2′-((1R,3S)-3-(4-(4-fluorophenyl)piperazin-1-yl)cyclopentyl)-7′,8′-dihydro-3′H-spiro[cyclopropane-1,6′-quinazolin]-4′(5′H)-one], the IC50 was in the range of 1 to 500 nM.

Take `O=c1[nH]c(CCCN2CCN(c3ccc(Cl)c(Cl)c3)CC2)nc2c1CC1(CC2)CC1` [Compound 10, 2′-(3-(4-(3,4-dichlorophenyl)piperazin-1-yl)propyl)-7′,8′-dihydro-3′H-spiro[cyclopropane-1,6′-quinazolin]-4′(5′H)-one]: the IC50 fell in the range of 501 to 5000 nM.

For the molecule `O=c1[nH]c(C2=C[C@H](N3CCN(c4ccc(Cl)c(F)c4)CC3)CC2)nc2c1CC1(CC2)CC1` [Compound 86, (R)-2′-(3-(4-(4-chloro-3-fluorophenyl)piperazin-1-yl)cyclopent-1-en-1-yl)-7′,8′-dihydro-3′H-spiro[cyclopropane-1,6′-quinazolin]-4′(5′H)-one], the IC50 fell in the range of 1 to 500 nM.

`O=c1[nH]c(C2=C[C@H](N3CCN(c4c(F)cccc4F)CC3)CC2)nc2c1CC1(CC2)CC1` [Compound 110, (R)-2′-(3-(4-(2,6-difluorophenyl)piperazin-1-yl)cyclopent-1-en-1-yl)-7′,8′-dihydro-3′H-spiro[cyclopropane-1,6′-quinazolin]-4′(5′H)-one]: the IC50 lay in the range of 501 to 5000 nM.
